EC50 data for 37 molecules are collected here from patent publication US20130296311A1, “INHIBITORS OF HCV NS5A” (PRESIDIO PHARMACEUTICALS, INC., priority 2010, published 2013).

Bounds are passed on as bounds.

The first assay has as its system HCV 1b_Huh-Luc/Neo-ET cell line persistently expressing a bicistronic genotype 1b replicon in Huh 7 cells. Nature of the assay: HCV replicon assay (luciferase readout, 72 h). Type of assay: cell-based, HCV genotype 1b. The note with it: Hepatitis C virus, Huh-7, 72 h, read-out: Inhibition of HCV. The procedure:
Biological activity of the compounds of the invention was determined using an HCV replicon assay. The HCV 1b_Huh-Luc/Neo-ET cell line persistently expressing a bicistronic genotype 1b replicon in Huh 7 cells was obtained from ReBLikon GMBH. This cell line was used to test compound inhibition using luciferase enzyme activity readout as a measurement of compound inhibition of replicon levels.
On Day 1 (the day after plating), each compound is added in triplicate to the cells. Plates incubated for 72 h prior to running the luciferase assay. Enzyme activity was measured using a Bright-Glo Kit (cat. number E2620) manufactured by Promega Corporation. The following equation was used to generate a percent control value for each compound.
% Control=(Average Compound Value/Average Control)*100
The EC50 value was determined using GraphPad Prism and the following equation:
Y=Bottom+(Top-Bottom)/(1+10̂((LogIC50−X)*HillSlope))
EC50 values of compounds are determined several times in the replicon assay.
Example compounds of the disclosed invention are illustrated in Tables 1-16 attached as appendices. The tables show inhibitory activity of many of the example compounds with respect to HCV 1b. […] The tables further provide mass spectrometry results for the synthesized example compounds.
For `COC(=O)N[C@@H](C(=O)N1CCC[C@H]1c1nc2ccc(C#Cc3ccc4nc([C@@H]5CCCN5C(=O)[C@H](NC(=O)OC)C(C)C)[nH]c4c3)cc2[nH]1)C(C)C` [Compound 853], the EC50 was less than 1 nM.

The same assay, now with this note: Hepatitis C virus, Huh-7, 72 h, read-out: Inhibition of HCV genotype 1b.
In the case of `COC(=O)N[C@@H](C)C(=O)N1CCC[C@H]1c1ncc(-c2ccc(C#Cc3ccc(-c4cnc([C@@H]5CCCN5C(=O)[C@H](C)NC(=O)OC)[nH]4)cc3)cc2)[nH]1` [Compound 962], the EC50 is less than 1 nM.

As to `COC(=O)N[C@H](C(=O)N1CCC[C@H]1c1nc(-c2ccc3cc(C#Cc4cnc([C@@H]5CCCN5C(=O)[C@@H](NC(=O)OC)C(C)C)[nH]4)ccc3c2)c[nH]1)c1ccccc1` [Compound 1078], the EC50 was less than 1 nM.

Turning to `CN(C)C(=O)N[C@@H](C(=O)N1CCC[C@H]1c1cc(-c2ccc(C#Cc3ccc(-c4cnc([C@@H]5CCCN5C(=O)[C@H](NC(=O)N(C)C)c5ccccc5)[nH]4)cc3)cc2)n[nH]1)c1ccccc1` [Compound 221], the EC50 is less than 1 nM.

With `COC(=O)N[C@@H](C(=O)N1CCC[C@H]1c1ncc(-c2ccc(C#Cc3ccc(C(=O)NC[C@@H]4CCCN4C(=O)[C@@H](c4ccccc4)N(C)C)cc3)cc2)[nH]1)c1ccccc1` [Compound 234], the EC50 was less than 1 nM.

With `COC(=O)N[C@H](C(=O)N1CCC[C@H]1c1nc(-c2cnc3cc(C#Cc4cnc([C@@H]5CCCN5C(=O)[C@@H](NC(=O)OC)C(C)C)[nH]4)ccc3c2)c[nH]1)C(C)C` [Compound 1076], the EC50 is less than 1 nM.

Consider `CN1CCN(C(=O)N[C@@H](C(=O)N2CCC[C@H]2c2ncc(C#Cc3ccc(-c4cnc([C@@H]5CCCN5C(=O)[C@H](NC(=O)N5CCN(C)CC5)c5ccccc5)[nH]4)cc3)[nH]2)c2ccccc2)CC1` [Compound 118], for which the EC50 was 10 to 999 nM.

For `COC(=O)N[C@H](C(=O)N1CCC[C@H]1c1nc2ccc3cc(C#Cc4ccc(-c5cnc([C@@H]6CCCN6C(=O)[C@@H](NC(=O)OC)C6CCOCC6)[nH]5)cc4)ccc3c2[nH]1)C(C)C` [Compound 1092], the EC50 was less than 1 nM.

Consider `CC(C)(C)OC(=O)N[C@@H](C(=O)N1CCC[C@H]1c1ncc(-c2ccc(C#Cc3ccc(-c4cnc([C@@H]5CCCN5C(=O)[C@H](NC(=O)OC(C)(C)C)c5ccccc5)[nH]4)cc3)cc2)[nH]1)c1ccccc1` [Compound 246], for which the EC50 is less than 1 nM.

As to `COC(=O)N[C@H](C(=O)N1CCC[C@H]1c1ncc(-c2ccc(C#Cc3ccc(-c4cnc([C@@H]5CCCN5C(=O)[C@@H](NC(=O)OC)[C@@H](C)OC)[nH]4)cc3)cc2)[nH]1)C(C)C` [Compound 972], the EC50 was less than 1 nM.

On to `COC(=O)N[C@H](C(=O)N1CCC[C@H]1c1ncc(-c2ccc(C#Cc3ccc(-c4cnc([C@@H]5CCCN5C(=O)[C@@H](c5ccccc5)N5CCC(C)(O)CC5)[nH]4)cc3)cc2)[nH]1)C(C)C` [Compound 970], for which the EC50 is less than 1 nM.

As to `COC[C@H](NC(=O)OC)C(=O)N1CCC[C@H]1c1ncc(-c2ccc(C#Cc3ccc4nc([C@@H]5CCCN5C(=O)[C@H](COC)NC(=O)OC)[nH]c4c3)cc2)[nH]1` [Compound 1037], the EC50 was less than 1 nM.

Consider `COC(=O)N[C@@H](Cc1ccccc1)C(=O)N1CCC[C@H]1c1ncc(-c2ccc(C#Cc3ccc4nc([C@@H]5CCCN5C(=O)[C@H](Cc5ccccc5)NC(=O)OC)[nH]c4c3)cc2)[nH]1` [Compound 1045], for which the EC50 was less than 1 nM.

In the case of `COC(=O)N[C@@H](C(=O)N1CCC[C@H]1c1ncc(-c2ccc(C#Cc3ccc(-c4cnc([C@@H]5CCCN5C(=O)[C@H](NC(=O)[C@H]5CCCO5)c5ccccc5)[nH]4)cc3)cc2)[nH]1)c1ccccc1` [Compound 201], the EC50 was less than 1 nM.

Turning to `COC(=O)N[C@H](C(=O)N1CCC[C@H]1c1nc(-c2ccc3cc(C#Cc4cnc([C@@H]5CCCN5C(=O)[C@H](NC(=O)OC)c5ccccc5)[nH]4)ccc3c2)c[nH]1)C(C)C` [Compound 1077], the EC50 is less than 1 nM.

Turning to `COC(=O)N[C@H](C(=O)N1CCC[C@H]1c1ncc(-c2ccc(C#Cc3ccc4nc([C@@H]5CCCN5C(=O)[C@@H](NC(=O)OC)C5CCCC5)[nH]c4c3)cc2)[nH]1)C1CCCC1` [Compound 1025], the EC50 was less than 1 nM.

For the molecule `COC(=O)N[C@H](C(=O)N1CCC[C@H]1c1ncc(C#Cc2ccc(-c3ccc4nc([C@@H]5CCCN5C(=O)[C@H](NC(=O)OC)c5ccccc5)[nH]c4c3)nc2)[nH]1)C(C)C` [Compound 1087], the EC50 was less than 1 nM.

On to `COC(=O)N[C@H](C(=O)N[C@@H](C)c1ncc(-c2ccc(C#Cc3ccc4nc([C@@H]5CCCN5C(=O)[C@@H](NC(=O)OC)C(C)C)[nH]c4c3)cc2)[nH]1)C(C)C` [Compound 869], for which the EC50 was less than 1 nM.

With `CN1CCC[C@@H]1C(=O)N[C@@H](C(=O)N1CCC[C@H]1c1ncc(-c2ccc(C#Cc3ccc(-c4cnc([C@@H]5CCCN5C(=O)[C@H](NC(=O)C5CC5)c5ccccc5)[nH]4)cc3)cc2)[nH]1)c1ccccc1` [Compound 216], the EC50 is less than 1 nM.

Consider `CC(=O)N[C@@H](C(=O)N1CCC[C@H]1c1ncc(-c2ccc(C#Cc3ccc(-c4cnc([C@@H]5CCCN5C(=O)[C@H](NC(C)=O)c5ccccc5)[nH]4)cc3)cc2)[nH]1)c1ccccc1` [Compound 158], for which the EC50 was less than 1 nM.

With `CC[C@H](NC(=O)OC)C(=O)N1CCC[C@H]1c1ncc(-c2ccc(C#Cc3ccc4nc([C@@H]5CCCN5C(=O)[C@H](CC)NC(=O)OC)[nH]c4c3)cc2)[nH]1` [Compound 1036], the EC50 is less than 1 nM.

In the case of `COC(=O)N[C@H](C(=O)N1CCC[C@H]1c1ncc(-c2ccc(C#Cc3ccc(-c4cnc([C@@H]5CCCN5C(=O)[C@@H](c5ccccc5)N(C)C)[nH]4)cc3)cc2)[nH]1)C(C)C` [Compound 955], the EC50 is less than 1 nM.

Turning to `O=C(N[C@@H](C(=O)N1CCC[C@H]1c1ncc(-c2ccc(C#Cc3ccc(-c4cnc([C@@H]5CCCN5C(=O)[C@@H](c5ccccc5)N5CCCCC5)[nH]4)cc3)cc2)[nH]1)c1ccccc1)N1CCOCC1` [Compound 209], the EC50 is less than 1 nM.

`COC(=O)N[C@@H](C(=O)N1CCC[C@H]1c1ncc(-c2ccc(C#Cc3ccc(-c4cnc([C@@H]5CCCN5C(=O)[C@H](NC(=O)C5(O)CC5)c5ccccc5)[nH]4)cc3)cc2)[nH]1)c1ccccc1` [Compound 277]: the EC50 is less than 1 nM.

Consider `CC[C@@H](C)[C@H](NC(=O)OC)C(=O)N1CCC[C@H]1c1ncc(-c2ccc(C#Cc3ccc4nc([C@@H]5CCCN5C(=O)[C@@H](NC(=O)OC)[C@H](C)CC)[nH]c4c3)cc2)[nH]1` [Compound 1024], for which the EC50 is less than 1 nM.

`COC(=O)N[C@@H](C(=O)N1CCC[C@H]1c1ncc(-c2ccc(C#Cc3ccc(C(=O)NC[C@@H]4CCCN4C(=O)[C@@H](c4ccccc4)N4CCCCC4)cc3)cc2)[nH]1)c1ccccc1` [Compound 233]: the EC50 was less than 1 nM.

Take `COC(=O)N[C@@H](CC(=O)N1CCC[C@H]1c1ncc(-c2ccc(C#Cc3ccc4nc([C@@H]5CCCN5C(=O)C[C@H](NC(=O)OC)C(C)C)[nH]c4c3)cc2)[nH]1)C(C)C` [Compound 1064]: the EC50 was in the range of 10 to 999 nM.

Take `COC(=O)N[C@H](C(=O)N1CCC[C@H]1c1ncc(-c2ccc(C#Cc3ccc(-c4cnc([C@H](C)NC(=O)[C@@H](c5ccccc5)N(C)C)[nH]4)cc3)cc2)[nH]1)C(C)C` [Compound 983]: the EC50 is less than 1 nM.

As to `COC(=O)N[C@H](C(=O)N[C@@H](C)c1ncc(-c2ccc(C#Cc3ccc(-c4cnc([C@H](C)NC(=O)[C@@H](NC(=O)OC)[C@@H](C)OC)[nH]4)cc3)cc2)[nH]1)[C@@H](C)OC` [Compound 952], the EC50 was 1 to 9.9 nM.

With `COC(=O)N[C@@H](C(=O)N1CCC[C@H]1c1ncc(-c2ccc(C#Cc3ccc(-c4cnc([C@@H]5CCCN5C(=O)[C@H](NC(=O)N5CC[C@H](O)C5)c5ccccc5)[nH]4)cc3)cc2)[nH]1)c1ccccc1` [Compound 269], the EC50 is less than 1 nM.

Turning to `CC(C)[C@@H](NC(=O)C1CC1)C(=O)N1CCC[C@H]1C(=O)NCc1ccc(C#Cc2cnc([C@@H]3CCCN3C(=O)[C@H](NC(=O)C3CC3)C(C)C)[nH]2)cc1` [Compound 122], the EC50 was 1 to 9.9 nM.

The assay is the same for the next values; noted with them: Hepatitis C virus, Huh-7, read-out: Inhibition of HCV genotype 1b.
For the molecule `CC[C@@H](C)[C@H](NC(=O)OC)C(=O)N1CCC[C@H]1c1ncc(-c2ccc(C#Cc3ccc(-c4cnc([C@@H]5CCCN5C(=O)[C@@H](NC(=O)OC)[C@H](C)CC)[nH]4)cc3)cc2)[nH]1` [Compound 1217], the EC50 is less than 1 nM.

Take `COC(=O)N[C@H](C(=O)N1CCC[C@H]1c1nc2ccc(C#Cc3ccc(-c4cnc([C@@H]5CCCN5C(=O)[C@@H](NC(=O)OC)C5CCOCC5)[nH]4)cc3)cc2[nH]1)C(C)C` [Compound 1237]: the EC50 was less than 1 nM.

For the molecule `COC(=O)N[C@@H](C(=O)N1CCC[C@H]1c1ncc(-c2ccc(C#Cc3ccc4nc([C@@H]5CCCN5C(=O)[C@H](NC(=O)OC)c5ccccc5)[nH]c4c3)cc2F)[nH]1)c1ccccc1` [Compound 1222], the EC50 was less than 1 nM.

Take `C=CC[C@H](NC(=O)OC)C(=O)N1CCC[C@H]1c1nc2ccc(C#Cc3ccc4c(ccc5nc([C@@H]6CCCN6C(=O)[C@@H](NC(=O)OC)C(C)C)[nH]c54)c3)cc2[nH]1` [Compound 1277]: the EC50 was less than 1 nM.

On to `COC(=O)N[C@H](C(=O)N1CCC[C@H]1c1nc2ccc(C#Cc3ccc4c(ccc5nc([C@@H]6CCCN6C(=O)[C@@H](NC(=O)OC)C6CCOCC6)[nH]c54)c3)cc2[nH]1)C(C)C` [Compound 1287], for which the EC50 was less than 1 nM.

As for `COC(=O)N[C@H](C(=O)N1CCC[C@H]1c1ncc(-c2ccc(C#Cc3ccc(-c4cnc([C@@H]5CCCN5C(=O)[C@H](NC(=O)OC)c5ccccc5)[nH]4)cc3)cc2)[nH]1)[C@@H](C)OC` [Compound 1210], the EC50 was less than 1 nM.
